Tested on: MM.1S cells
Assay: Proliferation inhibition (IC50) in MM.1S cells, cell viability assay
Conditions: Homo sapiens, MM1.S, 72 h, read-out: IC50 (nM), proliferation inhibitory activity of MM.1S cells (half inhibitory concentration)

SMILES	IC50
O=C1CCC(N2Cc3c(SCCCCCCCCO)cccc3C2=O)C(=O)N1 (centres unmarked) [SIAIS264006, 3-(4-((8-hydroxyoctyl)thio)-1-oxoisoindolin-2-yl)piperidine-2,6-dione]	0.83 nM
O=C1CCC(N2Cc3c(SCCCCCCCCNc4ncnc5ccccc45)cccc3C2=O)C(=O)N1 (centres unmarked) [SIAIS264011, 3-(1-oxo-4-((8-(quinazolin-4-ylamino)octyl)thio)isoindolin-2-yl)piperidine-2,6-dione]	0.34 nM
O=C1CCC(N2Cc3c(SCCCCCCCCN4CCCCC4=O)cccc3C2=O)C(=O)N1 (centres unmarked) [SIAIS264019, 3-(1-oxo-4-((8-(2-oxopiperidin-1-yl)octyl)thio)isoindolin-2-yl)piperidine-2,6-dione]	0.13 nM
O=C1CCC(N2Cc3c(SCCCCCCCN4CCCCC4=O)cccc3C2=O)C(=O)N1 (centres unmarked) [SIAIS264042, 3-(1-oxo-4-((7-(2-oxopiperidin-1-yl)heptyl)thio)isoindolin-2-yl)piperidine-2,6-dione]	0.051 nM
Cc1ccc(NC(=O)NCCSc2cccc3c2CN(C2CCC(=O)NC2=O)C3=O)cc1Cl (centres unmarked) [SIAIS269012, 1-(3-chloro-4-methylphenyl)-3-(2-((2-(2,6-dioxopiperidin-3-yl)-1-oxoisoindolin-4-yl)thio)ethyl)urea]	3.79 nM
Cc1ccc(NC(=O)NCCCCCCCSc2cccc3c2CN(C2CCC(=O)NC2=O)C3=O)cc1Cl (centres unmarked) [SIAIS269068, 1-(3-chloro-4-methylphenyl)-3-(7-((2-(2,6-dioxopiperidin-3-yl)-1-oxoisoindolin-4-yl)thio)heptyl)urea]	0.901 nM
Cc1ccc(NC(=O)NCCCCCCCCSc2cccc3c2CN(C2CCC(=O)NC2=O)C3=O)cc1Cl (centres unmarked) [SIAIS269072, 1-(3-chloro-4-methylphenyl)-3-(8-((2-(2,6-dioxopiperidin-3-yl)-1-oxoisoindolin-4-yl)thio)octyl)urea]	0.468 nM
Cc1ccc(NC(=O)NCCCCSc2cccc3c2CN(C2CCC(=O)NC2=O)C3=O)cc1Cl (centres unmarked) [SIAIS269095, 1-(3-chloro-4-methylphenyl)-3-(4-((2-(2,6-dioxopiperidin-3-yl)-1-oxoisoindolin-4-yl)thio)butyl)urea]	0.334 nM
O=C1CCC(N2Cc3c(SCCCCCCCOC4C5CC6CC(C5)CC4C6)cccc3C2=O)C(=O)N1 (centres unmarked) [SIAIS269159, 3-(4-((7-(adamantan-2-yloxy)heptyl)thio)-1-oxoisoindolin-2-yl)piperidine-2,6-dione]	0.068 nM
O=C1CCC(N2Cc3cc(SCCCCCCCNC45CC6CC(CC(C6)C4)C5)ccc3C2=O)C(=O)N1 (centres unmarked) [SIAIS271167, 3-(5-((7-((adamantan-1-yl)amino)heptyl)thio)-1-oxoisoindolin-2-yl)piperidine-2,6-dione]	164 nM
CN(CCCCNC(=O)CSc1cccc2c1CN(C1CCC(=O)NC1=O)C2=O)C12CC3CC(CC(C3)C1)C2 (centres unmarked) [SIAIS287105, N-(4-(adamantan-1-yl(methyl)amino)butyl)-2-((2-(2,6-dioxopiperidin-3-yl)-1-oxoisoindolin-4-yl)thio)acetamide]	5.01 nM
C[C@H](NCc1ccc(CSc2cccc3c2CN(C2CCC(=O)NC2=O)C3=O)o1)C1CC1 (stereo partly drawn) [SIAIS313129, 3-(4-(((5-((((S)-1-cyclopropylethyl)amino)methyl)furan-2-yl)methyl)thio)-1-oxoisoindolin-2-yl)piperidine-2,6-dione]	0.97 ± 0.55 nM
O=C1CCC(N2Cc3c(SCc4ccc(CNC5CCCC5)o4)cccc3C2=O)C(=O)N1 (centres unmarked) [SIAIS313148, 3-(4-(((5-((cyclopentylamino)methyl)furan-2-yl)methyl)thio)-1-oxoisoindolin-2-yl)piperidine-2,6-dione]	0.95 ± 0.45 nM
O=C1CCC(N2Cc3c(SCc4ccc(CNCC5CCCCO5)o4)cccc3C2=O)C(=O)N1 (centres unmarked) [SIAIS313149, 3-(1-oxo-4-(((5-((((tetrahydro-2H-pyran-2-yl)methyl)amino)methyl)furan-2-yl)methyl)thio)isoindolin-2-yl)piperidine-2,6-dione]	1.3 ± 0.96 nM
O=C1CCC(N2Cc3c(SCc4ccc(CNC(C5CC5)C5CC5)o4)cccc3C2=O)C(=O)N1 (centres unmarked) [SIAIS313150, 3-(4-(((5-(((dicyclopropylmethyl)amino)methyl)furan-2-yl)methyl)thio)-1-oxoisoindolin-2-yl)piperidine-2,6-dione]	0.7 ± 0.27 nM
CSc1cccc2c1CN(C1CCC(=O)NC1=O)C2=O (centres unmarked) [SIAIS1210071, 3-(4-(methylthio)-1-oxoisoindolin-2-yl)piperidine-2,6-dione]	3.37 ± 0.48 nM
CCCCCSc1cccc2c1CN(C1CCC(=O)NC1=O)C2=O (centres unmarked) [SIAIS1213195, 3-(1-oxo-4-(pentylthio)isoindolin-2-yl)piperidine-2,6-dione]	1.48 ± 0.06 nM
CCCCCCCCSc1cccc2c1CN(C1CCC(=O)NC1=O)C2=O (centres unmarked) [SIAIS1216025, 3-(4-(octylthio)-1-oxoisoindolin-2-yl)piperidine-2,6-dione]	2.1 ± 0.67 nM
O=C1CCC(N2Cc3c(SCCCCCN4CCOCC4)cccc3C2=O)C(=O)N1 (centres unmarked) [SIAIS1216061, 3-(4-((5-morpholinopentyl)thio)-1-oxoisoindolin-2-yl)piperidine-2,6-dione]	2.52 ± 0.22 nM
O=C1CCC(N2Cc3c(SCCCCCN4CCNCC4)cccc3C2=O)C(=O)N1 (centres unmarked) [SIAIS1216063, 3-(1-oxo-4-((5-(piperazin-1-yl)pentyl)thio)isoindolin-2-yl)piperidine-2,6-dione]	8.58 ± 2.58 nM
CN(C)CCCCCSc1cccc2c1CN(C1CCC(=O)NC1=O)C2=O (centres unmarked) [SIAIS1216089, 3-(4-((5-(dimethylamino)pentyl)thio)-1-oxoisoindolin-2-yl)piperidine-2,6-dione]	2.83 ± 0.76 nM
CC(=O)NCCCCCSc1cccc2c1CN(C1CCC(=O)NC1=O)C2=O (centres unmarked) [SIAIS1216095, N-(5-((2-(2,6-dioxopiperidin-3-yl)-1-oxoisoindolin-4-yl)thio)pentyl)acetamide]	1.53 ± 0.4 nM

Further lines, results first:

IC50	SMILES
2.29 ± 0.95 nM	O=C1CCC(N2Cc3c(SCc4ccc(CN5CCCCC5)o4)cccc3C2=O)C(=O)N1 (centres unmarked) [SIAIS313123, 3-(1-oxo-4-(((5-(piperidin-1-ylmethyl)furan-2-yl)methyl)thio)isoindolin-2-yl)piperidine-2,6-dione]
2.97 ± 0.79 nM	O=C1CCC(N2Cc3c(SCc4ccc(CN5CCOCC5)o4)cccc3C2=O)C(=O)N1 (centres unmarked) [SIAIS313126, 3-(4-(((5-(morpholinomethyl)furan-2-yl)methyl)thio)-1-oxoisoindolin-2-yl)piperidine-2,6-dione]
2.62 ± 0.94 nM	O=C1CCC(N2Cc3c(SCc4ccc(CN5CCCCCC5)o4)cccc3C2=O)C(=O)N1 (centres unmarked) [SIAIS313135, 3-(4-(((5-(azepan-1-ylmethyl)furan-2-yl)methyl)thio)-1-oxoisoindolin-2-yl)piperidine-2,6-dione]
9.38 ± 1.37 nM	O=C1CCC(N2Cc3c(SCc4csc(CN5CCOCC5)n4)cccc3C2=O)C(=O)N1 (centres unmarked) [SIAIS313163, 3-(4-(((2-(morpholinomethyl)thiazol-4-yl)methyl)thio)-1-oxoisoindolin-2-yl)piperidine-2,6-dione]
2.78 ± 0.73 nM	O=C1CCC(N2Cc3c(SCc4csc(CN5CCCCC5)n4)cccc3C2=O)C(=O)N1 (centres unmarked) [SIAIS313164, 3-(1-oxo-4-(((2-(piperidin-1-ylmethyl)thiazol-4-yl)methyl)thio)isoindolin-2-yl)piperidine-2,6-dione]
2.77 ± 1.12 nM	O=C1CCC(N2Cc3c(SCc4csc(CN5CCCCCC5)n4)cccc3C2=O)C(=O)N1 (centres unmarked) [SIAIS313165, 3-(4-(((2-(azepan-1-ylmethyl)thiazol-4-yl)methyl)thio)-1-oxoisoindolin-2-yl)piperidine-2,6-dione]
7.55 ± 1.89 nM	O=C1CCC(N2Cc3c(SCc4csc(CNC5CCCC5)n4)cccc3C2=O)C(=O)N1 (centres unmarked) [SIAIS313166, 3-(4-(((2-((cyclopentylamino)methyl)thiazol-4-yl)methyl)thio)-1-oxoisoindolin-2-yl)piperidine-2,6-dione]
5.03 ± 2.13 nM	O=C1CCC(N2Cc3c(SCc4nc(CN5CCOCC5)cs4)cccc3C2=O)C(=O)N1 (centres unmarked) [SIAIS313169, 3-(4-(((4-(morpholinomethyl)thiazol-2-yl)methyl)thio)-1-oxoisoindolin-2-yl)piperidine-2,6-dione]
2.56 ± 0.56 nM	O=C1CCC(N2Cc3c(SCc4nc(CN5CCCCC5)cs4)cccc3C2=O)C(=O)N1 (centres unmarked) [SIAIS313170, 3-(1-oxo-4-(((4-(piperidin-1-ylmethyl)thiazol-2-yl)methyl)thio)isoindolin-2-yl)piperidine-2,6-dione]
1.34 ± 0.32 nM	O=C1CCC(N2Cc3c(SCc4nc(CN5CCCCCC5)cs4)cccc3C2=O)C(=O)N1 (centres unmarked) [SIAIS313171, 3-(4-(((4-(azepan-1-ylmethyl)thiazol-2-yl)methyl)thio)-1-oxoisoindolin-2-yl)piperidine-2,6-dione]
1.63 ± 0.61 nM	CC1CC(C)CN(Cc2csc(CSc3cccc4c3CN(C3CCC(=O)NC3=O)C4=O)n2)C1 (centres unmarked) [SIAIS313186, 3-(4-(((4-((3,5-dimethylpiperidin-1-yl)methyl)thiazol-2-yl)methyl)thio)-1-oxoisoindolin-2-yl)piperidine-2,6-dione]
1.43 ± 0.3 nM	O=C1CCC(N2Cc3c(SCc4nc(CN5CC6CCCCC6C5)cs4)cccc3C2=O)C(=O)N1 (centres unmarked) [SIAIS313188, 3-(4-(((4-((hexahydro-1H-isoindol-2(3H)-yl)methyl)thiazol-2-yl)methyl)thio)-1-oxoisoindolin-2-yl)piperidine-2,6-dione]
2.51 ± 0.54 nM	O=C1CCC(N2Cc3c(SCc4nc(CN5CCSCC5)cs4)cccc3C2=O)C(=O)N1 (centres unmarked) [SIAIS355001, 3-(1-oxo-4-(((4-(thiomorpholinomethyl)thiazol-2-yl)methyl)thio)isoindolin-2-yl)piperidine-2,6-dione]
1.07 ± 0.39 nM	CCN(CC)Cc1csc(CSc2cccc3c2CN(C2CCC(=O)NC2=O)C3=O)n1 (centres unmarked) [SIAIS355002, 3-(4-(((4-((diethylamino)methyl)thiazol-2-yl)methyl)thio)-1-oxoisoindolin-2-yl)piperidine-2,6-dione]
0.75 ± 0.1 nM	O=C1CCC(N2Cc3c(SCc4nc(CNC5CCCCC5)cs4)cccc3C2=O)C(=O)N1 (centres unmarked) [SIAIS355003, 3-(4-(((4-((cyclohexylamino)methyl)thiazol-2-yl)methyl)thio)-1-oxoisoindolin-2-yl)piperidine-2,6-dione]
0.61 ± 0.42 nM	O=C1CCC(N2Cc3c(SCc4nc(CNCC5CCCCC5)cs4)cccc3C2=O)C(=O)N1 (centres unmarked) [SIAIS355004, 3-(4-(((4-(((cyclohexylmethyl)amino)methyl)thiazol-2-yl)methyl)thio)-1-oxoisoindolin-2-yl)piperidine-2,6-dione]

— patent US12582641B2, “Sulfur-containing compound based on glutarimide skeleton and application thereof” (SHANGHAITECH UNIVERSITY, priority 2019, dated 2026)
